# Results: patent US9598446B2, “Amino compounds for treatment of complement mediated disorders” (priority 2014, dated 2017)
# Biological target: Human factor D (Homo sapiens (Human), UniProt P00746)
# Assay: Human Factor D Assay
# Type: biochemical
# Details: not given
# Sequence of Human factor D (P00746 26-253): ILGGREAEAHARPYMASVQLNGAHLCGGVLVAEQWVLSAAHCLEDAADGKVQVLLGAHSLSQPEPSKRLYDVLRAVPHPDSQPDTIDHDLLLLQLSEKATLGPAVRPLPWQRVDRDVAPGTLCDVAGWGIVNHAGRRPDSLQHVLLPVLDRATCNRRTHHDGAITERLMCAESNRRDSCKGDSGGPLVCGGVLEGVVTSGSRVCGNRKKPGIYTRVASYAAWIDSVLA
row,Compound,IC50 [nM]
1,"CC(=O)c1cn(CC(=O)N2C[C@H](F)C[C@H]2C(=O)Nc2ccc(CN)cc2)c2ccc(Nc3cncnc3)cc12 [Compound 53, (2S,4R)-1-(2-(3-acetyl-5-(pyrimidin-5-ylamino)-1H-indol-1-yl)acetyl)-N-(4-(aminomethyl)phenyl)-4-fluoropyrrolidine-2-carboxamide]",1000 to 10000
2,"CC(=O)c1cn(CC(=O)N2C[C@H](F)C[C@H]2C(=O)Nc2cccc(Cl)c2-n2cncn2)c2ccc(Nc3cncnc3)cc12 [Compound 37, (2S,4R)-1-(2-(3-acetyl-5-(pyrimidin-5-ylamino)-1H-indol-1-yl)acetyl)-N-(3-chloro-2-(1H-1,2,4-triazol-1-yl)phenyl)-4-fluoropyrrolidine-2-carboxamide]",1000 to 10000
3,"CC(=O)c1cn(CC(=O)N2C[C@H](F)C[C@H]2C(=O)Nc2ccccc2-n2nccc2C)c2ccc(Nc3cncnc3)cc12 [Compound 30, (2S,4R)-1-(2-(3-acetyl-5-(pyrimidin-5-ylamino)-1H-indol-1-yl)acetyl)-4-fluoro-N-(2-(5-methyl-1H-pyrazol-1-yl)phenyl)pyrrolidine-2-carboxamide]",1000 to 10000
4,"CC(=O)c1cn(CC(=O)N2C[C@H](F)C[C@H]2C(=O)N[C@H]2CCCC[C@@H]2O)c2ccc(Nc3cncnc3)cc12 [Compound 36, (2S,4R)-1-(2-(3-acetyl-5-(pyrimidin-5-ylamino)-1H-indol-1-yl)acetyl)-4-fluoro-N-((1S,2S)-2-hydroxycyclohexyl)pyr-rolidine-2-carboxamide]",1000 to 10000
5,"CC(=O)c1cn(CC(=O)N2C[C@H](F)C[C@H]2C(=O)Nc2ccccc2N2CCOC2=O)c2ccc(Nc3cncnc3)cc12 [Compound 40, (2S,4R)-1-(2-(3-acetyl-5-(pyrimidin-5-ylamino)-1H-indol-1-yl)acetyl)-4-fluoro-N-(2-(2-oxooxazolidin-3-yl)phenyl)pyrrolidine-2-carboxamide]",1000 to 10000

# Same assay, conditions: human factor D 80 nM, substrate Z-L-Lys-SBz1 and DTNB 100 μM each, pH 7.5; read-out: IC50
row,Compound,IC50 [nM]
1,"CC(=O)c1cn(CC(=O)N2C[C@H](F)C[C@H]2C(=O)Nc2cc(C)nn2-c2ccccc2F)c2ccc(Nc3cncnc3)cc12 [Compound 57, (2S,4R)-1-(2-(3-acetyl-5-(pyrimidin-5-ylamino)-1H-indol-1-yl)acetyl)-4-fluoro-N-(1-(2-fluorophenyl)-3-methyl-1H-pyrazol-5-yl)pyrrolidine-2-carboxamide]",< 1000
2,"NC(=O)c1nn(CC(=O)N2C[C@H](F)C[C@H]2C(=O)Nc2cccc(Cl)n2)c2ccc(Nc3cccnn3)cc12 [Compound 11, 1-(2-((2S,4R)-2-(6-chloropyridin-2-ylcarbamoyl)-4-fluoropyrrolidin-1-yl)-2-oxoethyl)-5-(pyridazin-3-ylamino)-1H-indazole-3-carboxamide]",< 1000
3,"CC(=O)c1cn(CC(=O)N2C[C@H](F)C[C@H]2C(=O)NCc2ccncc2)c2ccc(Nc3cncnc3)cc12 [Compound 59, (2S,4R)-1-(2-(3-acetyl-5-(pyrimidin-5-ylamino)-1H-indol-1-yl)acetyl)-4-fluoro-N-(pyridin-4-ylmethyl)pyrrolidine-2-carboxamide]",< 1000
4,"CC(=O)c1cn(CC(=O)N2C[C@H](F)C[C@H]2C(=O)NC2CCCN(c3ccccc3Cl)C2=O)c2ccc(Nc3cncnc3)cc12 (stereo partly drawn) [Compound 58, (2S,4R)-1-(2-(3-acetyl-5-(pyrimidin-5-ylamino)-1H-indol-1-yl)acetyl)-N-(1-(2-chlorophenyl)-2-oxopiperidin-3-yl)-4-fluoropyrrolidine-2-carboxamide]",< 1000
5,"CC(=O)c1cn(CC(=O)N2C[C@H](F)C[C@H]2C(=O)NCc2ccccn2)c2ccc(Nc3cncnc3)cc12 [Compound 17, (2S,4R)-1-(2-(3-acetyl-5-(pyrimidin-5-ylamino)-1H-indol-1-yl)acetyl)-4-fluoro-N-(pyridin-2-ylmethyl)pyrrolidine-2-carboxamide]",< 1000
6,"CC(=O)c1cn(CC(=O)N2C[C@H](F)C[C@H]2C(=O)Nc2cc3c(cc2F)OC(F)(F)O3)c2ccc(Nc3cncnc3)cc12 [Compound 35, (2S,4R)-1-(2-(3-acetyl-5-(pyrimidin-5-ylamino)-1H-indol-1-yl)acetyl)-4-fluoro-N-(2,2,6-trifluorobenzo[d][1,3]dioxol-5-yl)pyrrolidine-2-carboxamide]",< 1000
7,"CC(=O)c1cn(CC(=O)N2C[C@H](F)C[C@H]2C(=O)Nc2cncc(Br)c2)c2ccc(Nc3cncnc3)cc12 [Compound 21, (2S,4R)-1-(2-(3-acetyl-5-(pyrimidin-5-ylamino)-1H-indol-1-yl)acetyl)-N-(5-bromopyridin-3-yl)-4-fluoropyrrolidine-2-carboxamide]",< 1000
8,"NC(=O)c1nn(CC(=O)N2C[C@H](F)C[C@H]2C(=O)Nc2cccc(-c3ccccc3Cl)c2F)c2ccc(Nc3cncnc3)cc12 [Compound 10, 1-(2-((2S,4R)-2-(2′-chloro-2-fluorobiphenyl-3-ylcarbamoyl)-4-fluoropyrrolidin-1-yl)-2-oxoethyl)-5-(pyrimidin-5-ylamino)-1H-indazole-3-carboxamide]",< 1000
9,"CC(=O)c1cn(CC(=O)N2C[C@H](F)C[C@H]2C(=O)Nc2ncc(Br)cn2)c2ccc(Nc3cncnc3)cc12 [Compound 44, (2S,4R)-1-(2-(3-acetyl-5-(pyrimidin-5-ylamino)-1H-indol-1-yl)acetyl)-N-(5-bromopyrimidin-2-yl)-4-fluoropyrrolidine-2-carboxamide]",< 1000
10,"CC(=O)c1cn(CC(=O)N2C[C@H](F)C[C@H]2C(=O)Nc2cccc(Cl)n2)c2ccc(Nc3cncnc3)cc12 [Compound 6, (2S,4R)-1-(2-(3-acetyl-5-(pyrimidin-5-ylamino)-1H-indol-1-yl)acetyl)-N-(6-chloropyridin-2-yl)-4-fluoropyrrolidine-2-carboxamide]",< 1000
11,"CC(=O)c1cn(CC(=O)N2C[C@H](F)C[C@H]2C(=O)Nc2cccc3c2OC(C)(C)C3)c2ccc(Nc3cncnc3)cc12 [Compound 24, (2S,4R)-1-(2-(3-acetyl-5-(pyrimidin-5-ylamino)-1H-indol-1-yl)acetyl)-N-(2,2-dimethyl-2,3-dihydrobenzofuran-7-yl)-4-fluoropyrrolidine-2-carboxamide]",< 1000
12,"CC(=O)c1cn(CC(=O)N2C[C@H](F)C[C@H]2C(=O)Nc2cncc(Cl)c2)c2ccc(Nc3cncnc3)cc12 [Compound 22, (2S,4R)-1-(2-(3-acetyl-5-(pyrimidin-5-ylamino)-1H-indol-1-yl)acetyl)-N-(5-chloropyridin-3-yl)-4-fluoropyrrolidine-2-carboxamide]",< 1000
13,"CC(=O)c1cn(CC(=O)N2C[C@H](F)C[C@H]2C(=O)Nc2ccccc2-c2nncn2C)c2ccc(Nc3cncnc3)cc12 [Compound 61, (2S,4R)-1-(2-(3-acetyl-5-(pyrimidin-5-ylamino)-1H-indol-1-yl)acetyl)-4-fluoro-N-(2-(4-methyl-4H-1,2,4-triazol-3-yl)phenyl)pyrrolidine-2-carboxamide]",> 10000
14,"CC(=O)c1cn(CC(=O)N2C[C@H](F)C[C@H]2C(=O)N[C@H](CO)c2cccc(Cl)c2F)c2ccc(Nc3cncnc3)cc12 [Compound 7, (2S,4R)-1-(2-(3-acetyl-5-(pyrimidin-5-ylamino)-1H-indol-1-yl)acetyl)-N-((S)-1-(3-chloro-2-fluorophenyl)-2-hydroxyethyl)-4-fluoropyrrolidine-2-carboxamide]",< 1000
15,"CCN1Cc2ccc(NC(=O)[C@@H]3C[C@@H](F)CN3C(=O)Cn3cc(C(C)=O)c4cc(Nc5cncnc5)ccc43)cc2C1=O [Compound 23, (2S,4R)-1-(2-(3-acetyl-5-(pyrimidin-5-ylamino)-1H-indol-1-yl)acetyl)-N-(2-ethyl-3-oxoisoindolin-5-yl)-4-fluoropyrrolidine-2-carboxamide]",< 1000
16,"CC(=O)c1cn(CC(=O)N2C[C@H](F)C[C@H]2C(=O)Nc2ccc(F)c(-c3nnc4n3CCCCC4)c2)c2ccc(Nc3cncnc3)cc12 [Compound 26, (2S,4R)-1-(2-(3-acetyl-5-(pyrimidin-5-ylamino)-1H-indol-1-yl)acetyl)-4-fluoro-N-(4-fluoro-3-(6,7,8,9-tetrahydro-5H-[1,2,4]triazolo[4,3-a]azepin-3-yl)phenyl)pyrrolidine-2-carboxamide]",< 1000
17,"N#Cc1cnc(Nc2ccc3c(c2)c(C(N)=O)nn3CC(=O)N2C[C@H](F)C[C@H]2C(=O)Nc2cccc(-c3ccccc3Cl)c2F)nc1 [Compound 13, 1-(2-((2S,4R)-2-(2′-chloro-2-fluorobiphenyl-3-ylcarbamoyl)-4-fluoropyrrolidin-1-yl)-2-oxoethyl)-5-(5-cyanopyrimidin-2-ylamino)-1H-indazole-3-carboxamide]",< 1000
18,"CC(=O)c1cn(CC(=O)N2C[C@H](F)C[C@H]2C(=O)NCc2cccc(Cl)c2)c2ccc(Nc3cncnc3)cc12 [Compound 19, (2S,4R)-1-(2-(3-acetyl-5-(pyrimidin-5-ylamino)-1H-indol-1-yl)acetyl)-N-(3-chlorobenzyl)-4-fluoropyrrolidine-2-carboxamide]",< 1000
19,"CC(=O)c1cn(CC(=O)N2C[C@H](F)C[C@H]2C(=O)Nc2ccccc2-c2nc3ccccc3s2)c2ccc(Nc3cncnc3)cc12 [Compound 32, (2S,4R)-1-(2-(3-acetyl-5-(pyrimidin-5-ylamino)-1H-indol-1-yl)acetyl)-N-(2-(benzo[d]thiazol-2-yl)phenyl)-4-fluoropyrrolidine-2-carboxamide]",> 10000
20,"CC(=O)c1cn(CC(=O)N2C[C@H](F)C[C@H]2C(=O)Nc2cccnc2)c2ccc(Nc3cncnc3)cc12 [Compound 31, (2S,4R)-1-(2-(3-acetyl-5-(pyrimidin-5-ylamino)-1H-indol-1-yl)acetyl)-4-fluoro-N-(pyridin-3-yl)pyrrolidine-2-carboxamide]",< 1000
